Experimental data as given in the supplement of paper PMC4862054.

Tested on: HCC1599
Experiment: normalised viability (% of control), CellTiter-Blue; higher = more viable cells (100 = DMSO, 0 = benzethonium chloride kill control)
Conditions: 0.1 nM; incubation time: 72 h
Procedure, shortened: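 The reported figure is normalised viability at a single listed concentration of the series. Breast cancer cell lines (20 µl suspension) went onto 384-well plates holding compound in 5 µl medium for 72 h. CellTiter-Blue (2.5 µl, 2 h, 37 °C) was read by fluorescence at 560/590 nm, and each plate was scaled to vehicle at 100 and a positive kill control at 0.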

| SMILES | normalised viability |
| --- | --- |
| COc1cc2c(Oc3ccc4[nH]c(C)cc4c3F)ncnc2cc1OCCCN1CCCC1 [Cediranib] | 82.5% |
| C=CC(=O)N1CCC[C@@H](n2nc(-c3ccc(Oc4ccccc4)cc3)c3c(N)ncnc32)C1 | 105% |

Same assay, conditions: 1 nM; incubation time: 72 h

| SMILES | normalised viability |
| --- | --- |
| NCCCNCCSP(=O)(O)O [Amifostine] | 110% |
| Nc1nc2[nH]cc(CCc3ccc(C(=O)N[C@@H](CCC(=O)O)C(=O)O)cc3)c2c(=O)[nH]1 [Pemetrexed] | 92.6% |
| C[C@H]1C[C@@H]2[C@H]([C@@H](O)C[C@@]3(C)[C@H]2CC[C@]3(O)C(=O)CO)[C@@]2(C)C=CC(=O)C=C12 [Methylprednisolone] | 114% |
| COc1cc([C@@H]2c3cc4c(cc3[C@@H](O[C@@H]3O[C@@H]5CO[C@@H](c6cccs6)O[C@H]5[C@H](O)[C@H]3O)[C@H]3COC(=O)[C@H]23)OCO4)cc(OC)c1O [Teniposide] | 98.3% |
| CCc1cncnc1N1CCN(Cc2nc3ccc(C(F)(F)F)cc3[nH]2)CC1 | 82.6% |
| Oc1ncc(N(CCCl)CCCl)c(O)n1 [Uracil mustard] | 94.5% |

Tested on: DU-4475
Experiment: normalised viability (% of control), CellTiter-Blue; higher = more viable cells (about 100 = DMSO control)
Conditions: 30 nM; incubation time: 72 h
Protocol: (§1)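 DSRT, CellTiter-Blue viability, 72 h incubation. Signal is normalised to DMSO and benzethonium chloride controls. Value is the normalised response at dose 6.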

| SMILES | normalised viability |
| --- | --- |
| COc1cc2c(Oc3ccc4[nH]c(C)cc4c3F)ncnc2cc1OCCCN1CCCC1 [Cediranib] | 95% |
| C=CC(=O)N1CCC[C@@H](n2nc(-c3ccc(Oc4ccccc4)cc3)c3c(N)ncnc32)C1 | 84.4% |

Same assay, conditions: 300 nM; incubation time: 72 h

| SMILES | normalised viability |
| --- | --- |
| NCCCNCCSP(=O)(O)O [Amifostine] | 87.7% |
| Nc1nc2[nH]cc(CCc3ccc(C(=O)N[C@@H](CCC(=O)O)C(=O)O)cc3)c2c(=O)[nH]1 [Pemetrexed] | 93.6% |
| C[C@H]1C[C@@H]2[C@H]([C@@H](O)C[C@@]3(C)[C@H]2CC[C@]3(O)C(=O)CO)[C@@]2(C)C=CC(=O)C=C12 [Methylprednisolone] | 100% |
| COc1cc([C@@H]2c3cc4c(cc3[C@@H](O[C@@H]3O[C@@H]5CO[C@@H](c6cccs6)O[C@H]5[C@H](O)[C@H]3O)[C@H]3COC(=O)[C@H]23)OCO4)cc(OC)c1O [Teniposide] | 10.4% |
| CCc1cncnc1N1CCN(Cc2nc3ccc(C(F)(F)F)cc3[nH]2)CC1 | 105% |
| Oc1ncc(N(CCCl)CCCl)c(O)n1 [Uracil mustard] | 80.8% |

Tested on: CAL-51
Experiment: as above
Conditions: 30 nM; incubation time: 72 h
Protocol: as §1

| SMILES | normalised viability |
| --- | --- |
| COc1cc2c(Oc3ccc4[nH]c(C)cc4c3F)ncnc2cc1OCCCN1CCCC1 [Cediranib] | 86% |
| C=CC(=O)N1CCC[C@@H](n2nc(-c3ccc(Oc4ccccc4)cc3)c3c(N)ncnc32)C1 | 92.2% |

Same assay, conditions: 300 nM; incubation time: 72 h

| SMILES | normalised viability |
| --- | --- |
| NCCCNCCSP(=O)(O)O [Amifostine] | 103% |
| Nc1nc2[nH]cc(CCc3ccc(C(=O)N[C@@H](CCC(=O)O)C(=O)O)cc3)c2c(=O)[nH]1 [Pemetrexed] | 110% |
| C[C@H]1C[C@@H]2[C@H]([C@@H](O)C[C@@]3(C)[C@H]2CC[C@]3(O)C(=O)CO)[C@@]2(C)C=CC(=O)C=C12 [Methylprednisolone] | 105% |
| COc1cc([C@@H]2c3cc4c(cc3[C@@H](O[C@@H]3O[C@@H]5CO[C@@H](c6cccs6)O[C@H]5[C@H](O)[C@H]3O)[C@H]3COC(=O)[C@H]23)OCO4)cc(OC)c1O [Teniposide] | 28.1% |
| CCc1cncnc1N1CCN(Cc2nc3ccc(C(F)(F)F)cc3[nH]2)CC1 | 88.1% |
| Oc1ncc(N(CCCl)CCCl)c(O)n1 [Uracil mustard] | 96.4% |

Tested on: CAL-85-1
Experiment: as above
Conditions: 300 nM; incubation time: 72 h
Protocol: (§2)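 DSRT, CellTiter-Blue viability, 72 h incubation. Signal is normalised to DMSO and benzethonium chloride controls. Value is the normalised response at dose 8.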

| SMILES | normalised viability |
| --- | --- |
| COc1cc2c(Oc3ccc4[nH]c(C)cc4c3F)ncnc2cc1OCCCN1CCCC1 [Cediranib] | 103% |
| C=CC(=O)N1CCC[C@@H](n2nc(-c3ccc(Oc4ccccc4)cc3)c3c(N)ncnc32)C1 | 57.1% |

Same assay, conditions: 3000 nM; incubation time: 72 h

| SMILES | normalised viability |
| --- | --- |
| NCCCNCCSP(=O)(O)O [Amifostine] | 91.6% |
| Nc1nc2[nH]cc(CCc3ccc(C(=O)N[C@@H](CCC(=O)O)C(=O)O)cc3)c2c(=O)[nH]1 [Pemetrexed] | 62.6% |
| C[C@H]1C[C@@H]2[C@H]([C@@H](O)C[C@@]3(C)[C@H]2CC[C@]3(O)C(=O)CO)[C@@]2(C)C=CC(=O)C=C12 [Methylprednisolone] | 101% |
| COc1cc([C@@H]2c3cc4c(cc3[C@@H](O[C@@H]3O[C@@H]5CO[C@@H](c6cccs6)O[C@H]5[C@H](O)[C@H]3O)[C@H]3COC(=O)[C@H]23)OCO4)cc(OC)c1O [Teniposide] | 41% |
| CCc1cncnc1N1CCN(Cc2nc3ccc(C(F)(F)F)cc3[nH]2)CC1 | 100% |
| Oc1ncc(N(CCCl)CCCl)c(O)n1 [Uracil mustard] | 93.8% |

Tested on: DU-4475
Experiment: as above
Conditions: 300 nM; incubation time: 72 h
Protocol: as §2

| SMILES | normalised viability |
| --- | --- |
| COc1cc2c(Oc3ccc4[nH]c(C)cc4c3F)ncnc2cc1OCCCN1CCCC1 [Cediranib] | 98.8% |
| C=CC(=O)N1CCC[C@@H](n2nc(-c3ccc(Oc4ccccc4)cc3)c3c(N)ncnc32)C1 | 96.1% |

Same assay, conditions: 3000 nM; incubation time: 72 h

| SMILES | normalised viability |
| --- | --- |
| NCCCNCCSP(=O)(O)O [Amifostine] | 110% |
| Nc1nc2[nH]cc(CCc3ccc(C(=O)N[C@@H](CCC(=O)O)C(=O)O)cc3)c2c(=O)[nH]1 [Pemetrexed] | 124% |
| C[C@H]1C[C@@H]2[C@H]([C@@H](O)C[C@@]3(C)[C@H]2CC[C@]3(O)C(=O)CO)[C@@]2(C)C=CC(=O)C=C12 [Methylprednisolone] | 97.9% |
| COc1cc([C@@H]2c3cc4c(cc3[C@@H](O[C@@H]3O[C@@H]5CO[C@@H](c6cccs6)O[C@H]5[C@H](O)[C@H]3O)[C@H]3COC(=O)[C@H]23)OCO4)cc(OC)c1O [Teniposide] | 2.12% |
| CCc1cncnc1N1CCN(Cc2nc3ccc(C(F)(F)F)cc3[nH]2)CC1 | 100% |
| Oc1ncc(N(CCCl)CCCl)c(O)n1 [Uracil mustard] | 105% |

Tested on: HDQ-P1
Experiment: as above
Conditions: 300 nM; incubation time: 72 h
Protocol: as §2

| SMILES | normalised viability |
| --- | --- |
| COc1cc2c(Oc3ccc4[nH]c(C)cc4c3F)ncnc2cc1OCCCN1CCCC1 [Cediranib] | 88.3% |
| C=CC(=O)N1CCC[C@@H](n2nc(-c3ccc(Oc4ccccc4)cc3)c3c(N)ncnc32)C1 | 87.5% |

Same assay, conditions: 3000 nM; incubation time: 72 h

| SMILES | normalised viability |
| --- | --- |
| NCCCNCCSP(=O)(O)O [Amifostine] | 94.8% |
| Nc1nc2[nH]cc(CCc3ccc(C(=O)N[C@@H](CCC(=O)O)C(=O)O)cc3)c2c(=O)[nH]1 [Pemetrexed] | 109% |
| C[C@H]1C[C@@H]2[C@H]([C@@H](O)C[C@@]3(C)[C@H]2CC[C@]3(O)C(=O)CO)[C@@]2(C)C=CC(=O)C=C12 [Methylprednisolone] | 105% |
| COc1cc([C@@H]2c3cc4c(cc3[C@@H](O[C@@H]3O[C@@H]5CO[C@@H](c6cccs6)O[C@H]5[C@H](O)[C@H]3O)[C@H]3COC(=O)[C@H]23)OCO4)cc(OC)c1O [Teniposide] | 67.3% |
| CCc1cncnc1N1CCN(Cc2nc3ccc(C(F)(F)F)cc3[nH]2)CC1 | 108% |
| Oc1ncc(N(CCCl)CCCl)c(O)n1 [Uracil mustard] | 115% |

Tested on: CAL-148
Experiment: as above
Conditions: 300 nM; incubation time: 72 h
Protocol: as §2

| SMILES | normalised viability |
| --- | --- |
| COc1cc2c(Oc3ccc4[nH]c(C)cc4c3F)ncnc2cc1OCCCN1CCCC1 [Cediranib] | 101% |
| C=CC(=O)N1CCC[C@@H](n2nc(-c3ccc(Oc4ccccc4)cc3)c3c(N)ncnc32)C1 | 84.6% |

Same assay, conditions: 3000 nM; incubation time: 72 h

| SMILES | normalised viability |
| --- | --- |
| NCCCNCCSP(=O)(O)O [Amifostine] | 95.1% |
| Nc1nc2[nH]cc(CCc3ccc(C(=O)N[C@@H](CCC(=O)O)C(=O)O)cc3)c2c(=O)[nH]1 [Pemetrexed] | 99.3% |
| C[C@H]1C[C@@H]2[C@H]([C@@H](O)C[C@@]3(C)[C@H]2CC[C@]3(O)C(=O)CO)[C@@]2(C)C=CC(=O)C=C12 [Methylprednisolone] | 96.8% |
| COc1cc([C@@H]2c3cc4c(cc3[C@@H](O[C@@H]3O[C@@H]5CO[C@@H](c6cccs6)O[C@H]5[C@H](O)[C@H]3O)[C@H]3COC(=O)[C@H]23)OCO4)cc(OC)c1O [Teniposide] | 9.86% |
| CCc1cncnc1N1CCN(Cc2nc3ccc(C(F)(F)F)cc3[nH]2)CC1 | 104% |
| Oc1ncc(N(CCCl)CCCl)c(O)n1 [Uracil mustard] | 113% |

Tested on: CAL-51
Experiment: as above
Conditions: 300 nM; incubation time: 72 h
Protocol: as §2

| SMILES | normalised viability |
| --- | --- |
| COc1cc2c(Oc3ccc4[nH]c(C)cc4c3F)ncnc2cc1OCCCN1CCCC1 [Cediranib] | 90.7% |
| C=CC(=O)N1CCC[C@@H](n2nc(-c3ccc(Oc4ccccc4)cc3)c3c(N)ncnc32)C1 | 85.5% |

Same assay, conditions: 3000 nM; incubation time: 72 h

| SMILES | normalised viability |
| --- | --- |
| NCCCNCCSP(=O)(O)O [Amifostine] | 107% |
| Nc1nc2[nH]cc(CCc3ccc(C(=O)N[C@@H](CCC(=O)O)C(=O)O)cc3)c2c(=O)[nH]1 [Pemetrexed] | 109% |
